Here are results for 19 compounds from publication PMC6016738 (European journal of medicinal chemistry, 2018).

Experiment [1] deals with E. coli DNA gyrase (Escherichia coli, UniProt P0AES6). The experiment can be described thus: E. coli DNA gyrase supercoiling assay.
For experiment [2], the system named is E. faecalis ATCC 29212. The experiment can be described thus: Antibacterial activity. The note with it: for inhibition at 50 µM: Enterococcus faecalis, ATCC29212, read-out: growth inhibition of E. faecalis. The class given is cell-based, Enterococcus faecalis.
For experiment [3], the target named is E. coli topoisomerase IV (Escherichia coli, UniProt P20083). As to the kind of experiment: E. coli topoisomerase IV inhibition assay. The settings on record: for IC50: IC50 E. coli topo IV; for remaining activity at 1 µM: read-out: RA (residual activity) E. coli topo IV.
Chain of E. coli topoisomerase IV (P20083 whole entry): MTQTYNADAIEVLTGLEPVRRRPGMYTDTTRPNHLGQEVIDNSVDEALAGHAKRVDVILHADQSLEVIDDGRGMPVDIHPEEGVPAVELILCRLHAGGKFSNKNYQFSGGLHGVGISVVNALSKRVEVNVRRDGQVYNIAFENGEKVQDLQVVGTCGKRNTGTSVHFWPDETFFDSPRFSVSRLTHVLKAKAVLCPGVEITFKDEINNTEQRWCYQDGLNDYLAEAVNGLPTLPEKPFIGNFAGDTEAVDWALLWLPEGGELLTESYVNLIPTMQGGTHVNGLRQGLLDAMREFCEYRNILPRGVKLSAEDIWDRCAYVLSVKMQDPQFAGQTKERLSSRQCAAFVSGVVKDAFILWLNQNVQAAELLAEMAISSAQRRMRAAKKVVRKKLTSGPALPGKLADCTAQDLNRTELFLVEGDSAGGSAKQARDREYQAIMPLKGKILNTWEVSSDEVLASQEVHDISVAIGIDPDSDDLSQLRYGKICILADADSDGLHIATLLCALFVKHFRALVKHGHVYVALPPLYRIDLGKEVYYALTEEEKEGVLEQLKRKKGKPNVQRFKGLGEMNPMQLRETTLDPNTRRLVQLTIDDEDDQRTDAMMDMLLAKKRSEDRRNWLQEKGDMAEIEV
Chain of E. coli topoisomerase IV (P0AFI2 whole entry partner): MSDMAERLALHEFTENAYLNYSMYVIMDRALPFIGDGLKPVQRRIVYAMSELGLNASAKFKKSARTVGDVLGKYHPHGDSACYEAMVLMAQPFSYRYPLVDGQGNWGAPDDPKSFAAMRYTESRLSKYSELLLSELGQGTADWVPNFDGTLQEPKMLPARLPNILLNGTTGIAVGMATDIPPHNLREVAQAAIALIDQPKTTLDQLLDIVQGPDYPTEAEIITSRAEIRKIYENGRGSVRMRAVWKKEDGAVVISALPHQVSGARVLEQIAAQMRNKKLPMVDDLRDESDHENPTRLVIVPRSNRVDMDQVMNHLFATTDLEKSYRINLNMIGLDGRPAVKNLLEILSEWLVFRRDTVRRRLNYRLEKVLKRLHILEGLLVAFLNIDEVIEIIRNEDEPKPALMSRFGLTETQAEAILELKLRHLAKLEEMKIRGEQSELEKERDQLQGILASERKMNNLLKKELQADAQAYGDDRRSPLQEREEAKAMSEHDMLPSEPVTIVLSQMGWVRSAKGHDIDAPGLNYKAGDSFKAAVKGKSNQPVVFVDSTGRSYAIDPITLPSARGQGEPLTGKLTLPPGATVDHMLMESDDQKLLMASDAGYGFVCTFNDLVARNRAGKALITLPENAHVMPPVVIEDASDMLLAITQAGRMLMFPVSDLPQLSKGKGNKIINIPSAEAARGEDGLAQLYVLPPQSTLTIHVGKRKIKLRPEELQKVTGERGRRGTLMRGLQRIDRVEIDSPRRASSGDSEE
The subject of experiment [4] is S. aureus ATCC 25923. As to the kind of experiment: Antibacterial activity. The note with it: Staphylococcus aureus, ATCC25923, read-out: growth inhibition of S. aureus. The class given is cell-based.
The test system of experiment [5] is E. coli JW5503 ΔtolC. The experiment can be described thus: Antibacterial activity. The note with it: inhibitor concentration 50 μM. The class given is cell-based, Escherichia coli.
Experiment [6] can be described thus: Growth inhibition of the bacterial panel at 50 μM. The note with it: read-out: growth inhibition of bacteria (all tested strains, Table 1S). The class given is cell-based.
Experiment [7] relates to E. coli (ATCC 25922). As to the kind of experiment: MIC broth micro-dilution. The class given is cell-based, Escherichia coli. In general terms: Broth dilution looks for growth in wells or tubes with falling amounts of substance.
Experiment [8] relates to E. coli (MG1655). The experiment can be described thus: MIC broth micro-dilution. The class given is cell-based, Escherichia coli.
Experiment [9] has as its system E. coli (BW 25113). As to the kind of experiment: MIC broth micro-dilution. The class given is cell-based, Escherichia coli.
For experiment [10], the system named is HUVEC cells. The note with it: read-out: IC50 HUVEC; literature value; cited from earlier work.
Experiment [11] has as its system HepG2 cells. The settings on record: read-out: IC50 HepG2; literature value; cited from earlier work.

Consider “4,5-Dibromo-N-(2-isopropoxy-4-((pyridin-2-ylmethyl)carbamoyl)phenyl)-1H-pyrrole-2-carboxamide [Compound 15a]”, for which the “RA (residual activity) E. coli gyrase” value in experiment [1] (residual activity of the enzyme at 1 μM of the compound) was 100%.

In general, inhibition refers to the share of the control response that was lost under treatment. `CC(C)Oc1cc(C(=O)N[C@H](C(=O)O)C(C)C)ccc1NC(=O)c1cc(Br)c(Br)[nH]1` [Compound 8a, (4-(4,5-Dibromo-1H-pyrrole-2-carboxamido)-3-isopropoxybenzoyl)-L-valine]: in experiment [2], the inhibition at 50 µM was greater than 80%.

Consider `Cc1[nH]c(C(=O)Nc2ccc(C(=O)N[C@@H](Cc3ccccc3)C(=O)O)cc2OC(C)C)c(Cl)c1Cl` [Compound 8d], for which the inhibition at 50 µM in experiment [2] is greater than 80%.

Usually IC50 stands for the midpoint of a concentration-inhibition curve. As to `Cc1[nH]c(C(=O)Nc2ccc(C(=O)N[C@@H](C)C(=O)O)cc2OC(C)C)c(Cl)c1Cl` [Compound 8e], in experiment [2], the inhibition at 50 µM was greater than 80%. The half-inhibitory concentration (IC50) in experiment [3] was less than 1000 nM.

For the compound `Cc1[nH]c(C(=O)Nc2ccc(C(=O)N[C@H](C)C(=O)O)cc2OC(C)C)c(Cl)c1Cl` [Compound 8f], in experiment [2], the inhibition at 50 µM was greater than 80%.

As to `Cc1[nH]c(C(=O)Nc2ccc(C(=O)N[C@@H](C)C(=O)O)cc2OCCNC(=O)OC(C)(C)C)c(Cl)c1Cl` [Compound 8i], in experiment [3], the remaining activity at 1 µM worked out at 100%.

On to `COC(=O)[C@H](Cc1ccccc1)NC(=O)c1ccc(NC(=O)c2cc(Br)c(Br)[nH]2)c(OCCN)c1` [Compound 9a, (S)-2-(2-(4,5-Dibromo-1H-pyrrole-2-carboxamido)-5-((1-methoxy-1-oxo-3-phenylpropan-2-yl)carbamoyl)phenoxy)ethan-1-aminium chloride], for which the inhibition at 50 µM in [4] and in experiment [2] was greater than 80% in each case.

For `COC(=O)[C@H](C)NC(=O)c1ccc(NC(=O)c2[nH]c(C)c(Cl)c2Cl)c(OCCN)c1.Cl` [Compound 9b], the inhibition at 50 µM in experiment [4] and in experiment [2] was greater than 80% each time. Further, in experiment [5], the “growth inhibition of E. coli JW5503 ΔtolC” value is “completely suppressed”.

In the case of `NCCOc1cc(C(=O)NCC(=O)O)ccc1NC(=O)c1cc(Br)c(Br)[nH]1` [Compound 9c], the inhibition at 50 µM in experiment [6] is less than 36%.

With `NCCOc1cc(C(=O)N[C@@H](Cc2ccccc2)C(=O)O)ccc1NC(=O)c1cc(Br)c(Br)[nH]1` [Compound 9d], the inhibition at 50 µM in [6] is less than 36%.

Consider `Cc1[nH]c(C(=O)Nc2ccc(C(=O)N[C@@H](C)C(=O)O)cc2OCCN)c(Cl)c1Cl` [Compound 9e], for which the IC50 in [3] was less than 1000 nM. The inhibition at 50 µM in experiment [6] was less than 36%.

Consider `Cc1[nH]c(C(=O)Nc2ccc(C(=O)N[C@@H](C)C(=O)NN)cc2OC(C)C)c(Cl)c1Cl` [Compound 10a, (S)-3,4-Dichloro-N-(4-((1-hydrazineyl-1-oxopropan-2-yl)carbamoyl)-2-isopropoxyphenyl)-5-methyl-1H-pyrrole-2-carboxamide], for which, in experiment [2], the inhibition at 50 µM is greater than 80%. Also, in experiment [3], the remaining activity at 1 µM turned out to be 100%.

A word on the MIC: it is the lowest concentration that inhibits growth of the organism. As for `Cc1[nH]c(C(=O)Nc2ccc(C(=O)N[C@@H](C)c3n[nH]c(=O)o3)cc2OC(C)C)c(Cl)c1Cl` [Compound 11a, (S)-3,4-Dichloro-N-(2-isopropoxy-4-((1-(5-oxo-4,5-dihydro-1,3,4-oxadiazol-2-yl)ethyl)carbamoyl)phenyl)-5-methyl-1H-pyrrole-2-carboxamide], the minimum inhibitory concentration (MIC) in experiment [7] (Escherichia coli, ATCC25922, read-out: MIC E. coli (ATCC 25922)) was greater than 50 µM; in experiment [8] (Escherichia coli, MG1655, read-out: MIC E. coli (MG1655)), greater than 50 µM; in experiment [9] (Escherichia coli, read-out: MIC E. coli (BW 25113)), greater than 50 µM. The “MIC E. coli (ATCC 25922)” value in experiment [7] (without PAβN) is recorded as “no bioactivity”. The inhibition at 50 µM in experiment [4] and in experiment [2] was greater than 80% in each case. Also, in experiment [8] (without PAβN), the “MIC E. coli (MG1655)” value was “no bioactivity”. Besides, in experiment [9] (without PAβN), the “MIC E. coli (BW 25113)” value is given as “no bioactivity”.

In the case of `Cc1[nH]c(C(=O)Nc2ccc(C(=O)N[C@@H](C)c3n[nH]c(=O)o3)cc2OCCNC(=O)OC(C)(C)C)c(Cl)c1Cl` [Compound 11b], the inhibition at 50 µM in [2] is greater than 80%.

Turning to `Cc1[nH]c(C(=O)Nc2ccc(C(=O)N[C@@H](C)c3n[nH]c(=O)o3)cc2OCCN)c(Cl)c1Cl` [Compound 12, (S)-2-(2-(3,4-Dichloro-5-methyl-1H-pyrrole-2-carboxamido)-5-((1-(5-oxo-4,5-dihydro-1,3,4-oxadiazol-2-yl)ethyl)carbamoyl)phenoxy)ethan-1-aminium chloride], in experiment [2] (inhibitor concentration 50 μM), the “growth inhibition of E. faecalis” value is given as “no growth inhibition”. The same compound registered an IC50 in experiment [3] of less than 1000 nM.

On to `O=C(O)CNC(=O)c1ccc(NC(=O)c2cc(Br)c(Br)[nH]2)cc1OCc1ccccc1` [Compound 23a, (2-(Benzyloxy)-4-(4,5-dibromo-1H-pyrrole-2-carboxamido)benzoyl)glycine], for which, in experiment [1] (ratio of IC50 values), the “fold more active on E. coli gyrase than isopropoxy analogue 23c” value came to 4 fold. In experiment [3], the IC50 worked out at 42000 ± 11000 nM.

For `CC(C)Oc1cc(NC(=O)c2cc(Br)c(Br)[nH]2)ccc1C(=O)NCC(=O)O` [Compound 23c], the remaining activity at 1 µM in experiment [3] worked out at 100%.

Regarding `Cc1[nH]c(C(=O)Nc2ccc(C(=O)NCC(=O)O)c(OC(C)C)c2)c(Cl)c1Cl` [Compound 23d], in [3], the remaining activity at 1 µM came to 100%.

With `COc1cc([C@@H]2c3cc4c(cc3[C@@H](O[C@@H]3O[C@@H]5CO[C@@H](C)O[C@H]5[C@H](O)[C@H]3O)[C@H]3COC(=O)[C@H]23)OCO4)cc(OC)c1O` [Etoposide], the values for the IC50 in experiment [10] and in experiment [11] were 1250 nM and 30.2 µM, respectively.
